Biological target: T1, estrogen-related receptor alpha (ERRα; NR3B1) (Homo sapiens, UniProt P11474)
T1 construct: gene ESRRA
T1 sequence (P11474 193-423 limits assumed): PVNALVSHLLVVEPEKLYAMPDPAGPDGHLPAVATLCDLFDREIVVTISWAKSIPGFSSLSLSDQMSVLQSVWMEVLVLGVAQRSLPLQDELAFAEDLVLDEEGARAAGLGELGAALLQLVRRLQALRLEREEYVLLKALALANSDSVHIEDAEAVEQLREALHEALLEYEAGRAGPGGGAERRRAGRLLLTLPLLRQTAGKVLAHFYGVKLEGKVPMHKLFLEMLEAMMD
Test: tryptophan fluorescence quenching; GST pull-down with LC-MS/MS
Format: binding

Question: With `CC(C)CCC[C@@H](C)[C@H]1CC[C@H]2[C@@H]3CC=C4C[C@@H](O)CC[C@]4(C)[C@H]3CC[C@]12C` [cholesterol] as the molecule, how does the Kd read?
Answer: Its Kd is 213 nM.

From PMC7463712, “Cholesterol as an Endogenous Ligand of ERRα Promotes ERRα-Mediated Cellular Proliferation and Metabolic Target Gene Expression in Breast Cancer Cells” (Cells, 2020)
